The values below come from patent publication US12384786B2 (MINGHUI PHARMACEUTICAL (SHANGHAI) LIMITED, priority 2019, dated 2025).

One test deals with Full-length human BTK (Homo sapiens (Human), UniProt Q06187). The test is described as follows: BTK inhibitory activity, Reaction Biology Corporation kinase assay. The following applies: for inhibition at 0.005 µM: read-out: BTK inhibitory rate(%).
Test [1] has as its target Full-length human BTK (C481S) (Homo sapiens (Human), UniProt Q06187, C481S). The test is described as follows: BTK (C481S) inhibitory activity, Reaction Biology Corporation kinase assay. The following applies: for inhibition at 0.005 µM: read-out: BTK(C481S) inhibitory rate(%).
Test [2] has as its system TMD8 cells (Human diffuse large B lymphoma cells). The test is described as follows: CellTiter-Glo TMD8 inhibitory activity. The test is classed as cell-based. The following applies: cultured in vitro. From the text: CellTiter-Glo kit was used to test the TMD8 inhibitory activity of compounds of examples on Human diffuse large B lymphoma cells cultured in vitro. IC50 values were shown below.

Where [3] appears, read: read-out: IC50(nM) BTK, (a) ATP concentration 30 μM.
[4] abbreviates: read-out: IC50(nM) BTK, (d) ATP concentration 50 μM.
[5] abbreviates: read-out: IC50(nM) BTK(C481S), (d) ATP concentration 50 μM.
Where [6] appears, read: IC50(nM) BTK, (d) ATP concentration 50 μM.
The mark [7] stands for this setting: IC50(nM) BTK(C481S), (d) ATP concentration 50 μM.

Each structure is given as a SMILES string. Like-named read-outs stand apart in the source and are kept apart here.

Full-length human BTK (C481S), sequence (Q06187 whole entry C481S): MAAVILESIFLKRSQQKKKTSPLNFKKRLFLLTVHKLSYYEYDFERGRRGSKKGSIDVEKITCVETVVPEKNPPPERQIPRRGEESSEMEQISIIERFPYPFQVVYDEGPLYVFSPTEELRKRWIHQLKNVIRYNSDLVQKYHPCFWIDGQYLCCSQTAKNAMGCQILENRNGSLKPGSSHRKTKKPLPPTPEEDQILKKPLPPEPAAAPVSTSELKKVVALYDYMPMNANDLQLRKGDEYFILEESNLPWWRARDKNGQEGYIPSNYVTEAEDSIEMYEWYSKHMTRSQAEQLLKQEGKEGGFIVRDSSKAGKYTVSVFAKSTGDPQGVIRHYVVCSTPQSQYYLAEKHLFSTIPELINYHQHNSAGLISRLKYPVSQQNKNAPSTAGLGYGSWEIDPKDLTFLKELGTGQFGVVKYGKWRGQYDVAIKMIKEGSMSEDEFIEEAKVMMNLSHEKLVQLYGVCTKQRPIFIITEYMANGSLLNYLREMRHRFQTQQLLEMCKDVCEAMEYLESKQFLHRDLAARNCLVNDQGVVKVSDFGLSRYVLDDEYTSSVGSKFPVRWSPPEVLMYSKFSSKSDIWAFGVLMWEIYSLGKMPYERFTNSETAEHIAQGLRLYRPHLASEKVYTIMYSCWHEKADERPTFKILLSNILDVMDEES
Full-length human BTK, sequence (Q06187 whole entry): as the sequence (Q06187 whole entry C481S) above, with S481C counted along it

For orientation: IC50 means the concentration that inhibits the measured activity by half. As to `Nc1ncnc2c1c(-c1ccc(Oc3cccc(O)c3F)cc1)nn2[C@@H]1CCC[C@@H](O)C1` [Example 33, (1R,3R)-3-(4-(4-amino-1-(3-hydroxycyclohexyl)-1H-pyrazolo[3,4-d]pyrimidin-3-yl)phenoxy)-2-fluorophenol], at Full-length human BTK (setting [3]), the IC50 was 19.2 nM.
Take `COc1cccc(Oc2ccc(-c3nn([C@H]4CCC[C@H](O)C4)c4ncnc(N)c34)cc2)c1F` [Example 32, (1S,3S)-3-(4-amino-3-(4-(2-fluoro-3-methoxyphenoxy)phenyl)-1H-pyrazolin[3,4-d]pyrimidin-1-yl)cyclohexanol]: the IC50 on Full-length human BTK (setting [4]) turned out to be 2.6 nM; in test [1] (setting [5]) it was 0.9 nM.
On to `COc1cccc(Oc2ccc(-c3nn(C4CCC(CO)OC4)c4ncnc(N)c34)cc2)c1F` (single isomer, unassigned) [Example 30 Peak2-2, (5-(4-amino-3-(4-(2-fluoro-3-methoxyphenoxy)phenyl)-1H-pyrazolo[3,4-d]pyrimidin-1-yl)tetrahydro-2 h-pyran-2-yl)methanol], for which the values for the IC50 (against Full-length human BTK (setting [6]); in test [1] (setting [7])) were 5 nM and 2.8 nM, respectively.
For `COc1cccc(Oc2ccc(-c3nn([C@H]4CC[C@H](O)CC4)c4ncnc(N)c34)cc2)c1F` [Example 21, (1r, 4r)-4-(4-amino-3-(4-(2-fluoro-3-methoxyphenoxy)phenyl)-1H-pyrazolo[3,4-d]pyrimidin-1-yl)cyclohex-1-ol], the IC50 on Full-length human BTK (setting [3]) amounted to 16 nM.
For the compound `COc1cccc(Oc2ccc(-c3nn(C4CCC(CO)OC4)c4ncnc(N)c34)cc2)c1F` (single isomer, unassigned) [Example 30 Peak2-1, (5-(4-amino-3-(4-(2-fluoro-3-methoxyphenoxy)phenyl)-1H-pyrazolo[3,4-d]pyrimidin-1-yl)tetrahydro-2 h-pyran-2-yl)methanol], the 50% inhibitory concentration (IC50) on Full-length human BTK (setting [6]) was 1.8 nM; in test [1] (setting [7]) it was 1.1 nM.
Regarding `COc1cccc(Oc2ccc(-c3nn(C4CCCCC4)c4ncnc(N)c34)cc2)c1F` [Example 29, 1-cyclohexyl-3-(4-(2-fluoro-3-methoxyphenoxy)phenyl)-1H-pyrazolo[3,4-d]pyrimidin-4-amine, reference compound], the IC50 on Full-length human BTK (setting [3]) was determined as 64.1 nM.
For the compound `Nc1ncnc2c1c(-c1ccc(Oc3ccccc3)cc1)nn2C1CCC(O)(C2CC2)CC1` (centres unmarked) [Example 10, 4-(4-amino-3-(4-phenoxyphenyl)-1H-pyrazolo[3,4-d]pyrimidin-1-yl]-1-cyclopropylcyclohexane-1-ol], the inhibition at 0.005 µM on Full-length human BTK came to 63%; in test [1], 72%. The compound further gave an IC50 in test [2] of 145 nM.
Take `Nc1ncnc2c1c(-c1ccc(Oc3ccccc3)cc1)nn2[C@H]1CC[C@@H](O)CC1` [Example 8A, (1s, 4S)-4-(4-amino-3-(4-phenoxyphenyl)-1H-pyrazolo[3,4-d]pyrimidin-1-yl) cyclohexane-1-ol]: the inhibition at 0.005 µM on Full-length human BTK was 82%; in test [1] it was 66%. In test [2], this compound showed a half-maximal inhibitory concentration (IC50) of 90 nM.
Take `Nc1ncnc2c1c(-c1ccc(Oc3ccccc3)cc1)nn2C1CCC(O)(C(F)(F)F)C1` (centres unmarked) [Example 7, 3-(4-amino-3-(4-phenoxyphenyl)-1H-pyrazolo[3,4-d]pyrimidin-1-yl)-1-(trifluoromethyl) Cyclopentanol]: in test [2], the IC50 was determined as 504 nM.
Regarding `C[C@]1(O)CCC[C@@H](n2nc(-c3ccc(Oc4ccccc4)cc3)c3c(N)ncnc32)C1` [Example 3A, (1s, 3R)-3-(4-amino-3-(4-phenoxyphenyl)-1H-pyrazolo[3,4-d]pyrimidin-1-yl)-1-methylcyclohexane-1-ol], in test [2], the half-maximal inhibitory concentration (IC50) came out at 208 nM.
With `C[C@]1(O)CC[C@@H](n2nc(-c3ccc(Oc4ccccc4)cc3)c3c(N)ncnc32)CC1` [Example 9A, (1s,4s)-4-(4-amino-3-(4-phenoxyphenyl)-1H-pyrazolo[3,4-d]pyrimidin-1-yl]-1-methylcyclohexane-1-ol], the inhibition at 0.005 µM at Full-length human BTK turned out to be 57%; in test [1] it was 77%. The IC50 in test [2] stood at 72 nM.
Consider `Nc1ncnc2c1c(-c1ccc(Oc3cccc(F)c3)cc1)nn2C1CCC(O)C1` (centres unmarked) [Example 25, 3-(4-amino-3-(4-(3-fluorophenoxy)phenyl)-1H-pyrazolo[3,4-d]pyrimidin-1-yl) cyclopentane-1-ol], for which the IC50 on Full-length human BTK (setting [3]) was 26.9 nM.
For the compound `Nc1ncnc2c1c(-c1ccc(Oc3ccccc3F)cc1)nn2[C@@H]1CCC[C@@H](O)C1` [Example 17, (1R,3R)-3-(4-amino-3-(4-(2-fluorophenoxy)phenyl)-1H-pyrazolo[3,4-d]pyrimidin-1-yl)cyclohex-1-ol], the values for the IC50 (at Full-length human BTK (setting [3]); in test [2]) were 24.1 nM and 33 nM, respectively.
For the compound `COc1cccc(Oc2ccc(-c3nn(C4CCC(CO)OC4)c4ncnc(N)c34)cc2)c1F` (single isomer, unassigned) [Example 30 Peak1-2, (5-(4-amino-3-(4-(2-fluoro-3-methoxyphenoxy)phenyl)-1H-pyrazolo[3,4-d]pyrimidin-1-yl)tetrahydro-2 h-pyran-2-yl)methanol], the IC50 stood at 8.5 nM on Full-length human BTK (setting [6]) and 6.7 nM in test [1] (setting [7]).
Turning to `Nc1ncnc2c1c(-c1ccc(Oc3c(F)cccc3F)cc1)nn2[C@@H]1CCC[C@@H](O)C1` [Example 18, (1R, 3R)-3-(4-amino-3-(4-(2,6-difluorophenoxy)phenyl)-1H-pyrazolo[3,4-d]pyrimidin-1-yl)cyclohex-1-ol], the figures for the half-inhibitory concentration (IC50) (at Full-length human BTK (setting [3]); in test [2]) were 49.1 nM and 183 nM, respectively.
On to `C[C@@]1(O)CCC[C@@H](n2nc(-c3ccc(Oc4ccccc4)cc3)c3c(N)ncnc32)C1` [Example 3B, (1R, 3R)-3-(4-amino-3-(4-phenoxyphenyl)-1H-pyrazolo[3,4-d]pyrimidin-1-yl)-1-methylcyclohexane-1-ol], for which, in test [2], it took 200 nM to reach half-maximal inhibition (IC50).
For `COc1cccc(Oc2ccc(-c3nn(C4CCC(CO)OC4)c4ncnc(N)c34)cc2)c1F` (single isomer, unassigned) [Example 30 Peak1-1, (5-(4-amino-3-(4-(2-fluoro-3-methoxyphenoxy)phenyl)-1H-pyrazolo[3,4-d]pyrimidin-1-yl)tetrahydro-2 h-pyran-2-yl)methanol], the IC50 came out at 3.8 nM at Full-length human BTK (setting [6]) and 3.7 nM in test [1] (setting [7]).
On to `Nc1ncnc2c1c(-c1ccc(Oc3ccccc3)cc1F)nn2[C@@H]1CCC[C@@H](O)C1` [Example 16, (1R, 3R)-3-(4-amino-3-(2-fluoro-4-phenoxyphenyl)-1H-pyrazolo[3,4-d]pyrimidin-1-yl)cyclohex-1-ol], for which the IC50 at Full-length human BTK (setting [3]) was 18.8 nM; in test [2], 41 nM.
In the case of `Nc1ncnc2c1c(-c1ccc(Oc3ccccc3)cc1)nn2[C@@H]1CCC[C@H](O)C1` [Example 2, (1S, 3R)-3-(4-amino-3-(4-phenoxyphenyl)-1H-pyrazolo[3,4-d]pyrimidin-1-yl) cyclohex-1-ol], the inhibition at 0.005 µM at Full-length human BTK was 50%.
Regarding `Nc1ncnc2c1c(-c1ccc(Oc3cccc(F)c3)cc1)nn2[C@@H]1CCC[C@@H](O)C1` [Example 15], at Full-length human BTK, the inhibition at 0.005 µM is 55%. The IC50 on Full-length human BTK (read-out: IC50(nM) BTK, (c) ATP concentration 10 μM) worked out at 3.8 nM; in test [1] (read-out: IC50(nM) BTK(C481S), (c) ATP concentration 10 μM), 1.7 nM.
Turning to `Nc1ncnc2c1c(-c1ccc(Oc3ccccc3)cc1)nn2C1CCC(O)C1` (centres unmarked) [Example 5], the inhibition at 0.005 µM worked out at 62% at Full-length human BTK and 53% in test [1]. Besides, the midpoint of inhibition in test [2], the IC50, lay at 29 nM.
`C[C@]1(O)CC[C@H](n2nc(-c3ccc(Oc4ccccc4)cc3)c3c(N)ncnc32)CC1` [Example 9B, (1r,4r)-4 (4-amino-3-(4-phenoxyphenyl)-1H-pyrazolo[3,4-d]pyrimidin-1-yl]-1-methylcyclohexane-1-ol]: the inhibition at 0.005 µM at Full-length human BTK stood at 46%; in test [1] it was 63%. This compound registered an IC50 in test [2] of 37 nM.
As to `COc1cccc(Oc2ccc(-c3nn([C@@H]4CCC[C@@H](O)C4)c4ncnc(N)c34)cc2)c1F` [Example 19, (1R, 3R)-3-(4-amino-3-(4-(2-fluoro-3-methoxyphenoxy)phenyl)-1H-pyrazolo[3,4-d]pyrimidin-1-yl)cyclohex-1-ol], the values for the IC50 (at Full-length human BTK (setting [3]); in test [2]) were 24.9 nM and 0.5 nM, respectively.
For the compound `COc1cccc(Oc2ccc(-c3nn(C4CCC(O)C(O)C4)c4ncnc(N)c34)cc2)c1F` (centres unmarked) [Example 28, 4-(4-amino-3-(4-(2-fluoro-3-methoxyphenoxy)phenyl)-1H-pyrazolo[3,4-d]pyrimidin-1-yl)cyclohexane-1,2-diol], the half-maximal inhibitory concentration (IC50) on Full-length human BTK (setting [4]) was 1.7 nM; in test [1] (setting [5]), 0.6 nM.
Turning to `COc1cccc(Oc2ccc(-c3nn([C@H]4CC[C@@H](O)CC4)c4ncnc(N)c34)cc2)c1F` [Example 20, (1s,4s)-4-(4-amino-3-(4-(2-fluoro-3-methoxyphenoxy)phenyl)-1H-pyrazolo[3,4-d]pyrimidin-1-yl)cyclohex-1-ol], the IC50 on Full-length human BTK (read-out: IC50(nM) BTK, (b) ATP concentration 100 μM) is 5 nM; in test [2], 8.6 nM; in test [1] (read-out: IC50(nM) BTK(C481S), (b) ATP concentration 100 μM) it was 0.9 nM.
On to `COc1cccc(Oc2ccc(-c3nn(C4CCC(O)C4)c4ncnc(N)c34)cc2)c1F` (centres unmarked) [Example 22, 3-(4-amino-3-(4-(2-fluoro-3-methoxyphenoxy)phenyl)-1H-pyrazolo[3,4-d]pyrimidin-1-yl)cyclopentane-1-ol], for which the IC50 in test [2] is 8 nM.
On to `CC1(O)CCC(n2nc(-c3ccc(Oc4ccccc4)cc3)c3c(N)ncnc32)C1` (centres unmarked) [Example 6, 3-(4-amino-3-(4-phenoxyphenyl)-1H-pyrazolo[3,4-d]pyrimidin-1-yl)-1-methylcyclopentanol], for which the values for the inhibition at 0.005 µM (at Full-length human BTK; in test [1]) were 70% and 63%, respectively. For the same compound, in test [2], 17 nM corresponded to half-maximal inhibition (IC50).
